# Laboratory results from ChEMBL document CHEMBL1130462, “New enone derivatives of oleanolic acid and ursolic acid as inhibitors of nitric oxide production in mouse macrophages” (Bioorg Med Chem Lett, 1997).
# Species on record: Mus musculus
# Test: Compound was measured for its inhibitory activity on IFN-gamma-induced nitric oxide production in mouse macrophage
# Assay type: functional
row,IC50,SMILES
1,0.015 µM,"C[C@]12CCC(=O)C=C1CCC1[C@@H]2[C@@H](O)C[C@@]2(C)[C@H]1CC[C@]2(O)C(=O)CO (single isomer, unassigned) [HYDROCORTISONE]"

# Species on record: Mus musculus
# Test: Inhibitory activity on IFN-gamma-induced nitric oxide production in mouse macrophage at a concentration of 0.1-40 uM
# Assay type: functional
row,SMILES,IC50
1,C[C@@H]1CC[C@]2(C(=O)O)CC[C@]3(C)C(=CC[C@@H]4[C@@]5(C)C=CC(=O)C(C)(C)[C@@H]5CC[C@]43C)C2[C@H]1C (stereo partly drawn),17.6 µM
2,CC1(C)CC[C@]2(C(=O)O)CC[C@]3(C)C(=C2C1)CC(=O)[C@@H]1[C@@]2(C)C=CC(=O)C(C)(C)[C@@H]2CC[C@]13C,2.6 µM
3,COC1=C[C@]2(C)[C@H]3CC=C4C5CC(C)(C)CC[C@]5(C(=O)O)CC[C@@]4(C)[C@]3(C)CC[C@H]2C(C)(C)C1=O (stereo partly drawn),30 µM
4,CC1(C)CC[C@]2(C(=O)O)CC[C@]3(C)C(=CC[C@@H]4[C@@]5(C)C=CC(=O)C(C)(C)[C@@H]5CC[C@]43C)C2C1 (stereo partly drawn),6 µM
5,CC1(C)CC[C@]2(C(=O)O)CC[C@]3(C)C(C(=O)C[C@@H]4[C@@]5(C)C=CC(=O)C(C)(C)[C@@H]5CC[C@]43C)C2C1 (stereo partly drawn),3.3 µM
6,CC1(C)CC[C@]2(C(=O)O)CC[C@]3(C)C(CC[C@@H]4[C@@]5(C)C=CC(=O)C(C)(C)[C@@H]5CC[C@]43C)C2C1 (stereo partly drawn),8.5 µM
7,CC1(C)CC[C@]2(C(=O)O)CC[C@]3(C)C(=CC(=O)[C@@H]4[C@@]5(C)C=CC(=O)C(C)(C)[C@@H]5CC[C@]43C)C2C1 (stereo partly drawn),1.8 µM
8,CC1(C)CC[C@]2(C(=O)O)CC[C@]3(C)C(=CC[C@@H]4[C@@]5(C)CCC(=O)C(C)(C)[C@@H]5CC[C@]43C)[C@@H]2C1 [OLEANONIC ACID],37.1 µM
9,CC1(C)CC[C@]2(C(=O)O)CC[C@]3(C)C(=C2C1)C=C[C@@H]1[C@@]2(C)C=CC(=O)C(C)(C)[C@@H]2CC[C@]13C,9.7 µM
10,CC1(C)CC[C@]2(C(=O)O)CC[C@]3(C)[C@H](C(=O)C=C4[C@@]5(C)C=CC(=O)C(C)(C)[C@@H]5CC[C@]43C)[C@@H]2C1,0.9 µM
11,CC1(C)CC[C@]2(C(=O)O)CC[C@]3(C)C(=CC[C@@H]4[C@@]5(C)C=C(O)C(=O)C(C)(C)[C@@H]5CC[C@]43C)C2C1 (stereo partly drawn),26.5 µM

# The next lines start with the values.
row,IC50,SMILES
1,40 µM,COC(=O)[C@]12CCC(C)(C)CC1C1=CC[C@@H]3[C@@]4(C)C=CC(=O)C(C)(C)[C@@H]4CC[C@@]3(C)[C@]1(C)CC2 (stereo partly drawn)
2,40 µM,CC1(C)CC[C@]2(C(=O)O)CC[C@]3(C)C(=CC[C@@H]4[C@@]5(C)CC[C@H](O)C(C)(C)[C@@H]5CC[C@]43C)[C@@H]2C1 [OLEANOLIC_ACID]
3,5.2 µM,CC1(C)CC[C@]2(C(=O)O)CC[C@]3(C)C(CC=C4[C@@]5(C)C=CC(=O)C(C)(C)[C@@H]5CC[C@]43C)C2C1 (stereo partly drawn)
4,5.1 µM,C[C@@H]1CC[C@]2(C(=O)O)CC[C@]3(C)C(=CC(=O)[C@@H]4[C@@]5(C)C=CC(=O)C(C)(C)[C@@H]5CC[C@]43C)C2[C@H]1C (stereo partly drawn)
5,35.5 µM,CC1(C)CC[C@]2(C(=O)O)CC[C@]3(C)C(CC4OC45[C@@]4(C)C=CC(=O)C(C)(C)[C@@H]4CC[C@]53C)C2C1 (stereo partly drawn)

# Species on record: Mus musculus
# Test: Compound was measured for its inhibitory activity on IFN-gamma-induced nitric oxide production in mouse macrophage; toxic at 5-10 uM
# Assay type: functional
row,SMILES,IC50
1,C[C@@H]1CC[C@]2(C(=O)O)CC[C@]3(C)C(=CC[C@@H]4[C@@]5(C)CC[C@H](O)C(C)(C)[C@@H]5CC[C@]43C)C2[C@H]1C (stereo partly drawn),toxic at 5-10 uM
